Data: ChEMBL document CHEMBL1141372, “Synthesis and pharmacophore modeling of naphthoquinone derivatives with cytotoxic activity in human promyelocytic leukemia HL-60 cell line” (J Med Chem, 2007)

Experiments:
[1] = Partition coefficient, log P of the compound; format: physicochemical; conditions: octanol/water
HL-60 = assay: Cytotoxicity against human promyelocytic leukemia HL60 cell line by MTT assay; format: cell-based

| Structure (SMILES) | logP ([1]; read-out: LogP) | IC50 (HL-60) [µM] | logP [1] |
| --- | --- | --- | --- |
| CC(C)(O[N+](=O)[O-])C1CC2=C(O1)C(=O)c1ccccc1C2=O (configuration not stated) | 3.4 | 1.24 |  |
| CC1(C)OC2=C(CC1Br)C(=O)c1ccccc1C2=O (configuration not stated) | 4.1 | 1.36 |  |
| CC(=O)OC1CC2=C(OC1(C)C)c1ccccc1C(=O)C2=O (configuration not stated) | 3 | 0.68 |  |
| CC(=O)OC1=C(CC2OC2(C)C)C(=O)c2ccccc2C1=O (configuration not stated) | 3 | 1.89 |  |
| CC(C)(Br)C1CC2=C(O1)c1ccccc1C(=O)C2=O (configuration not stated) | 3.2 | 0.7 |  |
| CC(=O)OC1=C(CC=C(C)C)C(=O)c2ccccc2C1=O | 4.5 | 4.51 |  |
| Cc1ccc(CC2=C(O)C(=O)c3ccccc3C2=O)o1 | 3.6 | 68.2 |  |
| CC(=O)OC1=C(CC(Br)C(C)(C)O)C(=O)c2ccccc2C1=O (configuration not stated) | 3.5 | 0.52 |  |
| CC(=O)OC1Cc2c(c3ccccc3c3nc4c(nc23)CCCC4)OC1(C)C (configuration not stated) | 5.7 | 24.2 |  |
| CC1(C)CCC2=C(O1)c1ccccc1/C(=N/O)C2=O | 4.6 | 3.2 |  |
| CC1(C)Oc2c(c3nccnc3c3ccccc23)CC1Br (configuration not stated) | 4.8 | 24.1 |  |
| C=C(C)C1CC2=C(O1)C(=O)c1ccccc1C2=O (stereo not drawn) [DEHYDROISO-ALPHA-LAPACHONE] | 3.4 | 1.46 |  |
| CC(C)=CCC1=C2NC3CCCCC3N=C2c2ccccc2C1=O (configuration not stated) | 4.2 | 15.5 |  |
| O=C1C2=C(OC(c3ccccc3)C2)C(=O)c2ccccc21 (configuration not stated) | 3.7 | 2.65 |  |
| CO[C@@H](C(=O)O[C@H]1CC2=C(OC1(C)C)c1ccccc1C(=O)C2=O)c1ccccc1 | 5 | 0.11 |  |
| CC(C)=CCC1=C(O)C(=O)c2ccccc2C1=O [LAPACHOL] | 4.1 | 3.18 |  |
| CC1(C)CCC(=O)c2nccnc2-c2ccccc2C(=O)O1 | 3.9 | 47.1 |  |
| CC1(C)OC2=C(C(=O)C(=O)c3ccccc32)C(O)C1Br (configuration not stated) | 3.1 | 0.12 |  |
| CO[C@@H](C(=O)O[C@@H]1CC2=C(OC1(C)C)c1ccccc1C(=O)C2=O)c1ccccc1 | 5 | 0.26 |  |
| CC(C)(O)C1Cc2c(c3ccccc3c3nccnc23)O1 (configuration not stated) | 2.5 | 44.1 |  |
| CC1(C)Oc2c(c3nc4c(nc3c3ccccc23)CCCC4)CC1O (configuration not stated) | 4.8 | 13.4 |  |
| CC(C)=CC1=C(O)C(=O)c2ccccc2C1=O | 3.2 | 27.7 |  |
| CCCCCCCCCCCC(=O)OC1CC2=C(OC1(C)C)c1ccccc1C(=O)C2=O (configuration not stated) | 8.3 | 0.26 |  |
| CC1(C)CCC2=C(O1)C(=O)c1ccccc1C2=O [ALPHA-LAPACHONE] | 3.5 | 13.5 |  |
| CC(C)(O)C1Cc2c(c3ccccc3c3nc4c(nc23)CCCC4)O1 (configuration not stated) | 4.2 | 31.9 |  |
| CC1(C)C[C@H](O)C2=C(O1)c1ccccc1C(=O)C2=O | 2.2 | 0.57 |  |

| Structure (SMILES) | logP ([1]; read-out: LogP) | IC50 (HL-60) [µM] | logP [1] |
| --- | --- | --- | --- |
| CC1(C)Oc2c(c3nccnc3c3ccccc23)CC1O (configuration not stated) | 3.2 | 28.2 |  |
| CC1(C)CCc2c(c3ccccc3c3nc4c(nc23)CCCC4)O1 | 6.4 | ≥ 100 |  |
| CC(=O)OC1=C(CC(O)C(C)(C)O)C(=O)c2ccccc2C1=O (configuration not stated) | 1.8 | 48.1 |  |
| COc1cc(C(=O)OC2=C(CC=C(C)C)C(=O)c3ccccc3C2=O)cc(OC)c1OC | 6.3 | 8.06 |  |
| CC1(C)C[C@@H](O)C2=C(O1)c1ccccc1C(=O)C2=O | 2.2 | 0.55 |  |
| COCOC1=C(CCC(C)C)C(=O)c2ccccc2C1=O | 4.4 | 53.9 |  |
| CC1(C)OC2=C(C=C1Br)C(=O)C(=O)c1ccccc12 | 3.5 | 0.2 |  |
| CC(C)(O)C1Cc2c(O)c([N+](=O)[O-])c3ccccc3c2O1 (configuration not stated) | 2.7 | 47 |  |
| CCCCCCCCCCCC(=O)OC1=C(CC=C(C)C)C(=O)c2ccccc2C1=O |  | 26.3 | 9.9 |
| CC1(C)OC2=C(CC1OC(=O)c1ccc(Br)cc1)C(=O)C(=O)c1ccccc12 (racemic) | 5.8 | 0.45 |  |
| CC1(C)OC2=C(CC1Br)C(=O)C(=O)c1ccccc12 (configuration not stated) | 3.6 | 0.13 |  |
| CC(C)=CCC1=C(O[Si](C)(C)C(C)(C)C)C(=O)c2ccccc2C1=O | 7.3 | 11.4 |  |
| CC1(C)OC2=C(CC1O)C(=O)c1ccccc1C2=O (configuration not stated) | 2.7 | 1.35 |  |
| CC(C)(O)C1CC(=O)c2nccnc2-c2ccccc2C(=O)O1 (configuration not stated) | 2.4 | > 100 |  |
| O=C1C2=C(OC(c3ccccc3)CC2)C(=O)c2ccccc21 (configuration not stated) | 4.7 | 22.9 |  |
| CC(C)CCC1=C(O)C(=O)C2=C(CCCC2)C1=O | 4.2 | 34.6 |  |
| CC1(C)CCc2c(c3ccccc3c3nccnc23)O1 | 4.7 | 23.7 |  |
| CC(C)(O)C1CC2=C(O1)c1ccccc1C(=O)C2=O (configuration not stated) | 1.6 | 1.97 |  |
| CC(C)C(=O)OC1CC2=C(OC1(C)C)c1ccccc1C(=O)C2=O (configuration not stated) | 3.8 | 0.24 |  |
| CC(=O)OC1=C(CC(Br)C(C)(C)Br)C(=O)c2ccccc2C1=O (configuration not stated) | 5.1 | 2.23 |  |
| CC(C)(O)C1CC2=C(O1)C(=O)c1ccccc1C2=O (configuration not stated) | 2 | 1.85 |  |
| CCOC1CCC2=C(O1)C(=O)c1ccccc1C2=O (configuration not stated) | 2.8 | 29.7 |  |
| CC1(C)CCC2=C(O1)c1ccccc1C(=O)C2=O [LAPACHONE] | 3.2 | 0.27 |  |
| CC1(C)OC2=C(CC1OC(=O)c1ccc(C#N)cc1)C(=O)C(=O)c1ccccc12 (racemic) | 4.7 | 0.13 |  |
| CC(C)CCC1=C(O)C(=O)c2ccccc2C1=O | 4.1 | 62.1 |  |
